# Reference: PMC12307812 (Nature Communications, 2025)
# Read-outs that look alike come from different tables or passages of the source.
# Assays:
# [1] = target: T1, Recombinant Human TMPRSS2 (Homo sapiens, UniProt O15393); experiment: TMPRSS2 biochemical assay with pre-incubation of inhibitor and enzyme; conditions: for inhibition at 2.788 pM: concentration 0.00278767 nM; for inhibition at 8.363 pM: concentration 0.00836301 nM; for inhibition at 25.09 pM: concentration 0.025089 nM; for inhibition at 75.27 pM: concentration 0.0752671 nM; for inhibition at 0.000225801 µM: concentration 0.225801 nM; for inhibition at 0.000677404 µM: concentration 0.677404 nM; for inhibition at 0.00203221 µM: concentration 2.03221 nM; for inhibition at 0.00609663 µM: concentration 6.09663 nM; for inhibition at 0.0182899 µM: concentration 18.2899 nM; for inhibition at 0.0548697 µM: concentration 54.8697 nM; for inhibition at 0.164609 µM: concentration 164.609 nM; for inhibition at 0.493827 µM: concentration 493.827 nM; for inhibition at 1.48148 µM: concentration 1481.48 nM; for inhibition at 4.44444 µM: concentration 4444.44 nM; for inhibition at 13.3333 µM: concentration 13333.3 nM; for inhibition at 40 µM: concentration 40000 nM
# T1 construct: human TMPRSS2 residues 106492, N-terminal 6x His-tag; 6x His-tag (N); purchased Cusabio CSB-YP023924HU; host or cells: yeast
# T1 sequence (O15393 106-492 limits assumed): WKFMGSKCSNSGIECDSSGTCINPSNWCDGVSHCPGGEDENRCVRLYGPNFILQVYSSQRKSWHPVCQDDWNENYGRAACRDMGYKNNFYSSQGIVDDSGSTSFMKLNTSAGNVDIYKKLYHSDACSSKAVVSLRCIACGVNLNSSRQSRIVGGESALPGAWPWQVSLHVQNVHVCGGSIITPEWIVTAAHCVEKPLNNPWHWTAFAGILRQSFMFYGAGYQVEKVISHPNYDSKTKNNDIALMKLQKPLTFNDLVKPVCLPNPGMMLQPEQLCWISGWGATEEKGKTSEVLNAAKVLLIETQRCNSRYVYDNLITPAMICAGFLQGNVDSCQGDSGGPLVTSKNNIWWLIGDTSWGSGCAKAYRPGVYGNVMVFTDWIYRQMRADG
# Description: To that was dispensed TMPRSS2 (5 µl, 0.018 mg/ml) in assay buffer (50 mM Tris pH 8, 150 mM NaCl, 0.01% Tween20) using a BioRAPTR (Beckman Coulter) to give a total reaction volume of 5 µl. […] The final assay conditions are 10 µM peptide, 0.018 mg/ml TMPRSS2 in assay buffer (50 mM Tris-HCl, pH 8, 150 mM NaCl, 0.01% Tween20).
# After incubation at room temperature for 1 h, fluorescence was measured. […] Raw plate reads for each titration point were normalized relative to a positive control containing no enzyme (0% activity, full inhibition) and a negative control containing DMSO-only wells (100% activity, basal activity). Data normalization was performed using GraphPad Prism (GraphPad Software, San Diego, CA).
# We employed the curve fitting algorithm available in the SciPy package (version 1.10.1)[61] to derive the Hill slope and the IC50 value, along with their corresponding error estimates.
# To model the relationship between the pre-incubation time and the IC50, we use the following equation inspired by the Morse potential:3 ft,a,D,te=D⋅1−exp−a⋅t−te^2 where t is the time, a is the width of the well, D is the IC50 at infinite time (depth of the well) and te is the time at which the IC50 reaches its minimum. Again, we made use of SciPy’s curve fitting method to obtain parameters a, D and te, with their respective error estimates.
# [2] = tested on: pseudovirus bearing S protein of SARS-CoV-1; experiment: organism not typed; assay type: cell-based
# [3] = tested on: vesicular stomatitis virus (VSV); assay type: cell-based; conditions: for mean log10(PFU/ml): VSV
# [4] = tested on: pseudovirus bearing S protein of HCoV-229E; experiment: organism not typed; assay type: cell-based
# [5] = Calu-3, read-out: mean inhibition
compound,measurement,setting,value
CC(C)(C)NC(=O)N1CCN(C(=O)N2C(=O)C(CCCNC(=N)N)C2C(=O)O)CC1 (stereo not shown) [BMS-262084],fold IC50 relative to camostat and nafamostat,[1]; after 48 h of pre-incubation,5 fold
same,inhibition at 2.788 pM,[1]; pre-incubation 0,-15.1%
same,inhibition at 8.363 pM,[1]; pre-incubation 0,-14.4%
same,inhibition at 25.09 pM,[1]; pre-incubation 0,-2.55%
same,inhibition at 75.27 pM,[1]; pre-incubation 0,9.07%
same,inhibition at 0.000225801 µM,[1]; pre-incubation 0,39.6%
same,inhibition at 0.000677404 µM,[1]; pre-incubation 0,61.8%
same,inhibition at 0.00203221 µM,[1]; pre-incubation 0,83.9%
same,inhibition at 0.00609663 µM,[1]; pre-incubation 0,90.2%
same,inhibition at 0.0182899 µM,[1]; pre-incubation 0,93.8%
same,inhibition at 0.0548697 µM,[1]; pre-incubation 0,94.7%
same,inhibition at 0.164609 µM,[1]; pre-incubation 0,96.7%
same,inhibition at 0.493827 µM,[1]; pre-incubation 0,97.7%
same,inhibition at 1.48148 µM,[1]; pre-incubation 0,98.2%
same,inhibition at 4.44444 µM,[1]; pre-incubation 0,98%
same,inhibition at 13.3333 µM,[1]; pre-incubation 0,101%
same,inhibition at 40 µM,[1]; pre-incubation 0,100%
same,inhibition at 2.788 pM,[1]; pre-incubation 1,9.6%
same,inhibition at 8.363 pM,[1]; pre-incubation 1,9.83%
same,inhibition at 25.09 pM,[1]; pre-incubation 1,32.2%
same,inhibition at 75.27 pM,[1]; pre-incubation 1,60.8%
same,inhibition at 0.000225801 µM,[1]; pre-incubation 1,90%
same,inhibition at 0.000677404 µM,[1]; pre-incubation 1,96.9%
same,inhibition at 0.00203221 µM,[1]; pre-incubation 1,97.1%
same,inhibition at 0.00609663 µM,[1]; pre-incubation 1,97.8%
same,inhibition at 0.0182899 µM,[1]; pre-incubation 1,97.1%
same,inhibition at 0.0548697 µM,[1]; pre-incubation 1,97.8%
same,inhibition at 0.164609 µM,[1]; pre-incubation 1,97.6%
same,inhibition at 0.493827 µM,[1]; pre-incubation 1,98.2%
same,inhibition at 1.48148 µM,[1]; pre-incubation 1,99.5%
same,inhibition at 4.44444 µM,[1]; pre-incubation 1,100%
same,inhibition at 13.3333 µM,[1]; pre-incubation 1,101%
same,inhibition at 40 µM,[1]; pre-incubation 1,102%
same,inhibition at 2.788 pM,[1]; pre-incubation 4,5.94%
same,inhibition at 8.363 pM,[1]; pre-incubation 4,11.2%
same,inhibition at 25.09 pM,[1]; pre-incubation 4,52.1%
same,inhibition at 75.27 pM,[1]; pre-incubation 4,87.4%
same,inhibition at 0.000225801 µM,[1]; pre-incubation 4,99.5%
same,inhibition at 0.000677404 µM,[1]; pre-incubation 4,99.4%
same,inhibition at 0.00203221 µM,[1]; pre-incubation 4,99.5%
same,inhibition at 0.00609663 µM,[1]; pre-incubation 4,99.5%
same,inhibition at 0.0182899 µM,[1]; pre-incubation 4,99.8%
same,inhibition at 0.0548697 µM,[1]; pre-incubation 4,99.8%
same,inhibition at 0.164609 µM,[1]; pre-incubation 4,100%
same,inhibition at 0.493827 µM,[1]; pre-incubation 4,100%
same,inhibition at 1.48148 µM,[1]; pre-incubation 4,101%
same,inhibition at 4.44444 µM,[1]; pre-incubation 4,101%
same,inhibition at 13.3333 µM,[1]; pre-incubation 4,103%
same,inhibition at 40 µM,[1]; pre-incubation 4,102%
same,inhibition at 2.788 pM,[1]; pre-incubation 8,25.7%
same,inhibition at 8.363 pM,[1]; pre-incubation 8,29.7%
same,inhibition at 25.09 pM,[1]; pre-incubation 8,84.9%
same,inhibition at 75.27 pM,[1]; pre-incubation 8,109%
same,inhibition at 0.000225801 µM,[1]; pre-incubation 8,113%
same,inhibition at 0.000677404 µM,[1]; pre-incubation 8,114%
same,inhibition at 0.00203221 µM,[1]; pre-incubation 8,114%
same,inhibition at 0.00609663 µM,[1]; pre-incubation 8,116%
same,inhibition at 0.0182899 µM,[1]; pre-incubation 8,115%
same,inhibition at 0.0548697 µM,[1]; pre-incubation 8,116%
same,inhibition at 0.164609 µM,[1]; pre-incubation 8,116%
same,inhibition at 0.493827 µM,[1]; pre-incubation 8,116%
same,inhibition at 1.48148 µM,[1]; pre-incubation 8,118%
same,inhibition at 4.44444 µM,[1]; pre-incubation 8,119%
same,inhibition at 13.3333 µM,[1]; pre-incubation 8,118%
same,inhibition at 40 µM,[1]; pre-incubation 8,118%
same,inhibition at 2.788 pM,[1]; pre-incubation 18,20.8%
same,inhibition at 8.363 pM,[1]; pre-incubation 18,24.6%
same,inhibition at 25.09 pM,[1]; pre-incubation 18,83.1%
same,inhibition at 75.27 pM,[1]; pre-incubation 18,92.8%
same,inhibition at 0.000225801 µM,[1]; pre-incubation 18,95.2%
same,inhibition at 0.000677404 µM,[1]; pre-incubation 18,95.6%
same,inhibition at 0.00203221 µM,[1]; pre-incubation 18,98.1%
same,inhibition at 0.00609663 µM,[1]; pre-incubation 18,98.2%
same,inhibition at 0.0182899 µM,[1]; pre-incubation 18,99.5%
same,inhibition at 0.0548697 µM,[1]; pre-incubation 18,101%
same,inhibition at 0.164609 µM,[1]; pre-incubation 18,102%
same,inhibition at 0.493827 µM,[1]; pre-incubation 18,103%
same,inhibition at 1.48148 µM,[1]; pre-incubation 18,102%
same,inhibition at 4.44444 µM,[1]; pre-incubation 18,103%
same,inhibition at 13.3333 µM,[1]; pre-incubation 18,104%
same,inhibition at 40 µM,[1]; pre-incubation 18,105%
same,inhibition at 2.788 pM,[1]; pre-incubation 24,45.1%
same,inhibition at 8.363 pM,[1]; pre-incubation 24,50.8%
same,inhibition at 25.09 pM,[1]; pre-incubation 24,105%
same,inhibition at 75.27 pM,[1]; pre-incubation 24,110%
same,inhibition at 0.000225801 µM,[1]; pre-incubation 24,114%
same,inhibition at 0.000677404 µM,[1]; pre-incubation 24,114%
same,inhibition at 0.00203221 µM,[1]; pre-incubation 24,114%
same,inhibition at 0.00609663 µM,[1]; pre-incubation 24,115%
same,inhibition at 0.0182899 µM,[1]; pre-incubation 24,116%
same,inhibition at 0.0548697 µM,[1]; pre-incubation 24,115%
same,inhibition at 0.164609 µM,[1]; pre-incubation 24,116%
same,inhibition at 0.493827 µM,[1]; pre-incubation 24,116%
same,inhibition at 1.48148 µM,[1]; pre-incubation 24,117%
same,inhibition at 4.44444 µM,[1]; pre-incubation 24,117%
same,inhibition at 13.3333 µM,[1]; pre-incubation 24,117%
same,inhibition at 40 µM,[1]; pre-incubation 24,117%
same,inhibition at 2.788 pM,[1]; pre-incubation 48,32.3%
same,inhibition at 8.363 pM,[1]; pre-incubation 48,30.9%
same,inhibition at 25.09 pM,[1]; pre-incubation 48,88.5%
same,inhibition at 75.27 pM,[1]; pre-incubation 48,93.1%
same,inhibition at 0.000225801 µM,[1]; pre-incubation 48,95.9%
same,inhibition at 0.000677404 µM,[1]; pre-incubation 48,96.1%
same,inhibition at 0.00203221 µM,[1]; pre-incubation 48,94.8%
same,inhibition at 0.00609663 µM,[1]; pre-incubation 48,94.5%
same,inhibition at 0.0182899 µM,[1]; pre-incubation 48,96.1%
same,inhibition at 0.0548697 µM,[1]; pre-incubation 48,96.3%
same,inhibition at 0.164609 µM,[1]; pre-incubation 48,97.7%
same,inhibition at 0.493827 µM,[1]; pre-incubation 48,99.7%
same,inhibition at 1.48148 µM,[1]; pre-incubation 48,101%
same,inhibition at 4.44444 µM,[1]; pre-incubation 48,105%
same,inhibition at 13.3333 µM,[1]; pre-incubation 48,109%
same,inhibition at 40 µM,[1]; pre-incubation 48,112%
same,IC50,"[2]; Calu-3, read-out: IC50 estimate, pseudovirus cell entry SARS-1-S",82 ± 23.1 nM
same,inhibition at 0.00025 µM,"[2]; Calu-3, concentration 0.25 nM",3.34%
same,inhibition at 0.0025 µM,"[2]; Calu-3, concentration 2.5 nM",5.92%
same,inhibition at 0.025 µM,"[2]; Calu-3, concentration 25 nM",31.7%
same,inhibition at 0.25 µM,"[2]; Calu-3, concentration 250 nM",73.6%
same,inhibition at 2.5 µM,"[2]; Calu-3, concentration 2500 nM",80.6%
same,inhibition at 25 µM,"[2]; Calu-3, concentration 25000 nM",91.7%
same,effect on VSV infection,[3],not affected
same,mean log10(PFU/ml),[3]; concentration 5 nM,9.0266 log10(PFU/ml)
same,mean log10(PFU/ml),[3]; concentration 50 nM,9.0323 log10(PFU/ml)
same,mean log10(PFU/ml),[3]; concentration 500 nM,9.005 log10(PFU/ml)
same,mean log10(PFU/ml),[3]; concentration 5000 nM,9 log10(PFU/ml)
same,mean log10(PFU/ml),[3]; concentration 50000 nM,9.006 log10(PFU/ml)
same,IC50,"[4]; Calu-3, read-out: IC50 estimate, pseudovirus cell entry 229E-S",990 ± 209 nM
same,inhibition at 0.00025 µM,[4]; [5],0.992%
same,inhibition at 0.0025 µM,[4]; [5],8.96%
same,inhibition at 0.025 µM,[4]; [5],22%
same,inhibition at 0.25 µM,[4]; [5],42.2%
same,inhibition at 2.5 µM,[4]; [5],58.4%
same,inhibition at 25 µM,[4]; [5],72.2%
